Results: patent US7829567B2, “Imino-indeno[1,2-c] quinoline derivatives, their preparation processes, and pharmaceutical compositions comprising the same” (Kaohsiung Medical University, priority 2007, dated 2010)
Structures can show the parent of a compound that is named as a salt. Where two headings read alike, the source gives them in different places.

What was measured:
[1] = test system: human stomach adenocarcinoma (AGS); assay: In vitro anticancer assay (MTT), AGS; type: cell-based; settings: AGS cells, 48 hrs, mean ± spread, read-out: Anti-proliferative evaluation IC50, AGS
Procedure: (§1) The resultant tetrazolium salt was then dissolved by the addition of dimethyl sulfoxide. Color was measured spectrophotometrically in a microtiter plate reader at 570 nm and used as a relative measure of viable cell number. The number of viable cells after treatment was compared to solvent and untreated control cells and used to determine the percent of control growth as (Abtreated/Abcontrol)×100, where Ab represents the mean absorbance (n=3). […] D. Heo et al. […] (+)-camptothecin (CPT) and doxorubicin hydrochloride (Dox) were used for comparison with the compounds according to this invention.

[2] = test system: esophageal carcinoma (CE81T); assay: In vitro anticancer assay (MTT), CE81T; type: cell-based; settings: CE81T cells, 48 hrs, mean ± spread, read-out: Anti-proliferative evaluation IC50, CE81T
Procedure: as §1

[3] = test system: hepatocellular carcinoma (SKHep1); assay: In vitro anticancer assay (MTT), SKHep1; type: cell-based; settings: 48 hrs, mean ± spread, read-out: Anti-proliferative evaluation IC50, SKHep1
Procedure: as §1

[4] = test system: human cervical epithelioid carcinoma (HeLa); assay: In vitro anticancer assay (MTT), HeLa; type: cell-based; settings: HeLa cells, 48 hrs, mean ± spread, read-out: Anti-proliferative evaluation IC50, HeLa
Procedure: as §1

[5] = test system: human renal clear cell carcinoma; assay: In vitro anticancer assay (MTT), RCC 768-O; type: cell-based; settings: RCC 768-O cells, 48 hrs, mean ± spread, read-out: Anti-proliferative evaluation IC50, RCC 768-O
Procedure: as §1

[6] = test system: oral squamous cell carcinoma (SAS); assay: In vitro anticancer assay (MTT), SAS; type: cell-based; settings: SAS cells, 48 hrs, mean ± spread, read-out: Anti-proliferative evaluation IC50, SAS
Procedure: as §1

cancer cells = assay: In vitro anticancer assay, summary over the six cancer cells; type: cell-based; settings: summary of Table 2
Procedure: Six cancer cells, i.e., cells of human cervical epithelioid carcinoma (HeLa), hepatocellular carcinoma (SKHep1), oral squamous cell carcinoma (SAS), human stomach adenocarcinoma (AGS), human renal clear cell carcinoma (RCC 768-O) and esophageal carcinoma (CE81T), were treated with the selected compounds as indicated for 48 hrs in a medium containing 10% FBS (3-[4,5-Dimethylthiazol-2-yl]-2,5-diphenyltetrazolium bromide (MTT, 2 mg/mL, […]) was added to the cultures and incubated during the final 1.5 hrs. The resultant tetrazolium salt was then dissolved by the addition of dimethyl sulfoxide. Color was measured spectrophotometrically in a microtiter plate reader at 570 nm and used as a relative measure of viable cell number. The number of viable cells after treatment was compared to solvent and untreated control cells and used to determine the percent of control growth as (Abtreated/Abcontrol)×100, where Ab represents the mean absorbance (n=3). The concentration that killed 50% of cells (IC50) was determined from the linear portion of the curve by calculating the concentration of agent that reduced absorbance in treated cells, as compared to control cells, by 50% (S. D. Heo et al. (1990), Cancer Res., 50:3681-3690). (+)-camptothecin (CPT) and doxorubicin hydrochloride (Dox) were used for comparison with the compounds according to this invention.

[7] = Homo sapiens, SK-HEP1, SKHep1 cells

| IC50 ([1]; Homo sapiens) [µM] | IC50 [2] [µM] | IC50 [3, 7] [µM] | melting point [°C] | IC50 ([4]; Homo sapiens) [µM] | IC50 ([5]; Homo sapiens) [µM] | IC50 [6] [µM] | IC50 [1] [µM] | IC50 ([3]; SKHep1 cells) [µM] | IC50 [4] [µM] | IC50 [5] [µM] | Compound | anticancer activity (in words) (cancer cells) |
| --- | --- | --- | --- | --- | --- | --- | --- | --- | --- | --- | --- | --- |
| 5.9 ± 1.4 | 6.8 ± 1.2 | 7.4 ± 2.1 | 251 to 252 | 7.2 ± 0.9 | 9.1 ± 1.5 | 6.5 ± 0.9 |  |  |  |  | COc1ccc2c(c1)C(=O)c1c-2c(Nc2ccc(C(C)=O)cc2)nc2ccccc12 [Compound 5s, 6-(4-Acetylphenylamino)-9-methoxy-11H-indeno[1,2-c]quinolin-11-one] |  |
|  |  |  | 270 to 271 |  |  |  |  |  |  |  | COc1ccc2c(c1)C(=NO)c1c-2cnc2ccccc12 [Compound 6a, 9-Methoxy-11H-indeno[1,2-c]quinolin-11-one oxime] |  |
|  |  |  | 149 to 150 |  |  |  |  |  |  |  | CON=C1c2ccccc2-c2c(N3CCNCC3)nc3ccccc3c21 (as salt: salt) [Compound 6j, 6-(Piperazin-1-yl)-11H-indeno[1,2-c]quinolin-11-one O-methyl oxime] |  |
| 10.1 ± 1.2 | > 30 | 25.3 ± 15.5 | 150 to 151 | 15.2 ± 1.5 | 12.5 ± 1 | > 30 |  |  |  |  | COc1ccc2c(c1)C(=O)c1c-2c(N2CCNCC2)nc2ccccc12 [Compound 5x, 9-Methoxy-6-(piperazin-1-yl)-11H-indeno[1,2-c]quinolin-11-one] |  |
| 6.8 ± 1.8 | > 30 | 3 ± 2.8 |  | 0.6 ± 0.3 | 4.9 ± 0.8 | 4.9 ± 0.6 |  |  |  |  | COc1ccc2c(c1)C(=NOCCCN(C)C)c1c-2c(N2CCNCC2)nc2ccccc12 [Compound 6s, 9-Methoxy-6-(piperazin-1-yl)-11H-indeno[1,2-c]quinolin-11-one O-3-(dimethylamino)propyl oxime] |  |
|  | > 30 |  |  |  |  | 17 ± 2.9 | 8.1 ± 1.1 | 16.6 ± 2 | 11.7 ± 1.7 | 11.5 ± 1.8 | COc1ccc2c(c1)C(=O)c1c-2c(N2CCN(C(=O)CCN(C)C)CC2)nc2ccccc12 [Compound 5yy] |  |
|  | > 30 |  |  |  |  | 19.5 ± 3.2 | 14.1 ± 2.3 | 16 ± 3.8 | 8.2 ± 2.2 | 9.4 ± 0.6 | COc1ccc2c(c1)C(=O)c1c-2c(N2CCN(C(=O)CNCCN(C)C)CC2)nc2ccccc12 [Compound 5oo] |  |
|  | > 30 |  |  |  |  | > 30 | 5.6 ± 2.2 | 13.1 ± 2.7 | 10.8 ± 3 | 10 ± 2.1 | COc1ccc2c(c1)C(=O)c1c-2c(N2CCN(C(=O)CNCCCN(C)C)CC2)nc2ccccc12 [Compound 5pp] |  |

More lines, now with the values behind:

| Compound | IC50 ([1]; Homo sapiens) [µM] | IC50 [2] [µM] | IC50 [3, 7] [µM] | melting point [°C] | IC50 ([4]; Homo sapiens) [µM] | IC50 ([5]; Homo sapiens) [µM] | IC50 [6] [µM] | IC50 [1] [µM] | IC50 ([3]; SKHep1 cells) [µM] | IC50 [4] [µM] | IC50 [5] [µM] | anticancer activity (in words) (cancer cells) |
| --- | --- | --- | --- | --- | --- | --- | --- | --- | --- | --- | --- | --- |
| COc1ccc2c(c1)C(=O)c1c-2c(N2CCN(C(=O)CCCl)CC2)nc2ccccc12 [Compound 5hh, 6-[4-(3-Chloropropanoyl)piperazin-1-yl]-9-methoxy-11H-indeno[1,2-c]quinolin-11-one] |  |  |  | 162 to 163 |  |  |  |  |  |  |  |  |
| COc1ccc2c(c1)C(=O)c1c-2c(O)nc2ccccc12 [Compound 5e, 6-Hydroxy-9-methoxy-11H-indeno[1,2-c]quinolin-11-one] |  |  |  | 316 to 317 |  |  |  |  |  |  |  |  |
| CN(C)CCNc1nc2ccccc2c2c1-c1ccccc1C2=O [Compound 5a, 6-(2-(Dimethylamino)ethylamino)-11H-indeno[1,2-c]quinolin-11-one] | 7.9 ± 1.5 | 4.1 ± 3.3 | 3.8 ± 1.8 | 148 to 149 | 2.4 ± 1.2 | 7.1 ± 0.6 | 6.6 ± 0.9 |  |  |  |  |  |
| COc1ccc2c(c1)C(=O)c1c-2cnc2ccccc12 [Compound 5d, 9-Methoxy-11H-indeno[1,2-c]quinolin-11-one] |  |  |  | 195 to 196 |  |  |  |  |  |  |  |  |
| COc1cccc2c1C(=O)c1c-2c(N2CCNCC2)nc2ccccc12 [Compound 5bb] |  | 4.9 ± 1.5 |  |  |  |  | 5.1 ± 0.8 | 4.1 ± 1.2 | 0.7 ± 0.3 | 0.4 ± 0.1 | 1.7 ± 0.5 | broad and potent anticancer activity |
| COc1ccc2c(c1)C(=O)c1c-2c(N2CCN(C(=O)CCNCCN3CCNCC3)CC2)nc2ccccc12 [Compound 5iii] |  | > 30 |  |  |  |  | > 30 | 13.4 ± 1.3 | 11.5 ± 5.6 | > 30 | > 30 |  |
| COc1ccc2c(c1)C(=O)c1c-2c(N2CCN(C(=O)CCNCCNCCN)CC2)nc2ccccc12 [Compound 5ddd] |  | > 30 |  |  |  |  | > 30 | 10.8 ± 0.2 | > 30 | > 30 | > 30 |  |
| COc1ccc2c(c1)C(=O)c1c-2c(N2CCNCC2)nc2ccc(F)cc12 [Compound 5ee, 2-Fluoro-9-methoxy-6-(piperazin-1-yl)-11H-indeno[1,2-c]quinolin-11-one] | 6.5 ± 0.9 | 0.9 ± 0.6 | 16.5 ± 5.1 |  | > 30 | 4.7 ± 3 | 6.9 ± 0.5 |  |  |  |  |  |
| COc1ccc2c(c1)C(=O)c1c-2c(N2CCN(C(=O)CCCN(C)C)CC2)nc2ccccc12 [Compound 5jjj] |  | > 30 |  |  |  |  | 8 ± 0.8 | 5.4 ± 0.6 | 5.5 ± 0.8 | 4.9 ± 1.7 | 5.3 ± 0.5 |  |
